Test results as given in patent US20260325661A1, “ANTIBODY-CONJUGATED IMMUNO-ACTIVATING SMALL MOLECULE COMPOUND, AND USE” (SHENZHEN CONJUGENIX PHARMACEUTICAL TECHNOLOGY CO., LTD, priority 2023, published 2026).
Read-outs that look alike come from different tables or passages of the source.

Key:
MC38-hPD-L1 cells = test: Tumor inhibition assay in mice bearing MC38-hPD-L1 colon cancer; assay type: in vivo, mouse; conditions: PD-L1 antibody 3 mg/kg, intraperitoneal, Day 8 and Day 12 after inoculation
Experimental: MC38-hPD-L1 cells (a humanized MC38 colon cancer cell line expressing human PD-L1 protein, Shanghai Model Organisms Center, Inc.) in the logarithmic phase were collected by digestion and centrifugation, and washed with PBS twice before counting, and the cell concentration was adjusted to 2.3×10^5 cells/mL. The mice were 6-week-old SPF-grade humanized C57BL/6 mice. The right back of the mice was shaved completely with a shaver, and 100 μL of the cell suspension was aspirated with a syringe and injected subcutaneously into the back of the mice after removing bubbles. When the tumor diameter reached 4-5 mm, administration was started.
Assessment of therapeutic effect on tumor-bearing mice and antitumor effect of the compounds: tumor-bearing mice (BALB/c) were randomly divided into control group, Atezolizumab antibody group (PD-L1 antibody group), and PD-L1-KX conjugate group (Atezolizumab-conjugated compound KX) (5 mice per group). […] The tumor was measured with a vernier caliper and the survival of the mice was recorded every three days at the beginning of administration and after administration. The tumor volume was calculated by the following method: 0.5×a×b^2, wherein a is the long-axis diameter and b is the short-axis diameter. […]

[1] = test system: human peripheral blood mononuclear cells (PBMCs); test: ELISA assay of immunocyte activator: induction of IFN-γ in human PBMCs; assay type: cell-based; conditions: 24 h, 37 °C, read-out: EC50 IFN-γ ratio (inducing human PBMCs to produce IFN-γ)
Experimental: The immune activity of each compound is represented by the function of inducing human peripheral blood mononuclear cells (PBMCs) to produce the immune cytokine IFN-γ by, and the EC50 values thereof are shown in Table 3.
• 1) Peripheral blood samples from healthy human volunteer were collected into heparin anticoagulant tubes to reach 5 mL of fresh blood, and PBS was added at a ratio of 1:1 to dilute the blood (2 mL+2 mL in conventional blood collection tubes). • 2) 5 mL of lymphocyte separation medium was put in a 15 mL sterile centrifuge tube for use. • 3) The diluted blood was aspirated and slowly added from 1 cm above the separation medium along the tube wall, so that the diluted blood overlaid the separation medium and formed a distinct interface therewith. • 4) The centrifuge tube was centrifuged at 2000 rpm at room temperature for 20 min. Now five layers formed in the centrifuge tube: the top layer was plasma layer, and the layer between the plasma layer and the lymphocyte separation medium was the lymphocyte layer as a white film. • 5) The mononuclear cell layer as a white film in the middle was aspirated carefully and mononuclear cells were aspirated as many as possible. The mononuclear cells were washed by more than 5 volumes of PBS twice, and each time, the mononuclear cells were centrifuged at 1500 rpm for 10 min. • 6) The supernatant was removed, then 1 mL of 1640 medium was added and mixed uniformly. A small amount of the mixture was taken for cell counting.
The prepared PBMCs were plated in a 96-well plate (Costar, 3894) (2×10^5 cells per well). Each compound in Table 3 was taken and added into the wells with plated cells at ten concentrations with uniform gradient distribution (0.0001-10 μM, diluted with […] medium containing […]).

[2] = Homo sapiens, PBMC, no pretreatment marked
[3] = Homo sapiens, PBMC, pH 6, 24 h, Note b: sample pretreated with equimolar glutathione, PBS pH 6, 37 °C
[4] = Note a: sample pretreated with human liver microsomal enzyme, 2 h
[5] = Homo sapiens, PBMC, Note a: sample pretreated with human liver microsomal enzyme, 2 h

Molecule | EC50 [1, 2] | also measured
Atezolizumab: PD-L1 antibody purchased from MedChemExpress (Atezolizumab, CAS number: 1380723-44-3) | – | tumor volume inhibition rate (Atezolizumab as control) (MC38-hPD-L1 cells): 67%
COCCOc1nc(N)c2[nH]c(=O)n(Cc3ccc(CNC(=O)CCC(=O)NC(CCCCc4cn(CCOCCOCCOc5c(OC)cc(/C=C/C(=O)N6CCC=CC6=O)cc5OC)nn4)C(=O)O)cc3)c2n1 (stereo not shown) [SZU-191] | 100 nM | –
C#Cc1c(F)ccc2cc(O)cc(-c3c(Cl)cc4c(N5CC6CCC(C5)N6C(=O)OCc5ccc(NC(=O)[C@H](CCCNC(N)=O)NC(=O)[C@@H](NC(=O)C(CCCCc6cn(CCOCCOCCOCCNC(=O)CCN7C(=O)C=CC7=O)nn6)NC(=O)CCC(=O)NCc6ccc(Cn7c(=O)[nH]c8c(N)nc(OCCOC)nc87)cc6)C(C)C)cc5)nc(OC[C@@]56CCCN5C[C@H](F)C6)nc4c3F)c12 (stereo partly shown) [Compound K33] | 180 nM | –
CCCCOc1nc(N)c2c(n1)n(CCCc1cn(CCOCCOCCOCCNC(=O)CCN3C(=O)C=CC3=O)nn1)c(=O)n2COC(=O)OC(C)C [Compound K41] | – | EC50 ([1]; Homo sapiens, PBMC, pH 5, 24 h, Note d: sample pretreated by hydrolysis, acetate buffer pH 5, 37 °C, 72 h): 2 nM
CCCCOc1nc(N)c2[nH]c(=O)n(Cc3ccc(NC(=S)Nc4sc5c(c4C(=O)O)CCCC5)cc3)c2n1 [KJ006] | 290 nM | –
COCCOc1nc(N)c2[nH]c(=O)n(Cc3ccc(CNC(=O)CCC(=O)O)cc3)c2n1 [SZU-101, reference compound] | – | EC50 ([1]; no pretreatment marked): 500 nM
C=C(COC(=O)n1c(=O)n(Cc2ccc(CNC(=O)CCc3cn(CCOCCOCCOCCOCCN=[N+]=[N-])nn3)cc2)c2nc(OCCOC)nc(N)c21)C(=O)OCC [Compound K45] | – | EC50 [1, 3]: 10 nM
C=C(COC(=O)n1c(=O)n(CCCc2cn(CCOCCOCCOCCOCCN=[N+]=[N-])nn2)c2nc(OCCCC)nc(N)c21)C(=O)OCC [Compound K44] | – | EC50 [1, 3]: 2 nM
CCCCOc1nc(N)c2[nH]c(=O)n(Cc3ccc(NC(=S)Nc4sc5c(c4C(=O)N[C@@H](CCCCNC(=O)OCc4ccc(NC(=O)[C@H](CCCNC(N)=O)NC(=O)[C@@H](NC(=O)CCCCCN6C(=O)C=CC6=O)C(C)C)cc4)C(=O)NCCOCCOCCOCCOCCNC(=O)CCC(=O)N4Cc6ccccc6C#Cc6ccccc64)CCCC5)cc3)c2n1 [Compound K34] | 131 nM | –
COCCOc1nc(N)c2[nH]c(=O)n(Cc3ccc(CNC(=O)CCC(=O)NC(CCCCc4cn(CCOCCOCCOCCN=C=S)nn4)C(=O)NCCOCCOCCOCCNC(=O)OC4CC/C=C/CCC4)cc3)c2n1 (stereo not shown) [Compound K48] | 89 nM | –
CCCCOc1nc(N)c2c(n1)N(Cc1cn(CCNC(=O)OCc3ccc(NC(=O)[C@H](CCCNC(N)=O)NC(=O)[C@@H](NC(=O)CCOCCOCCOCCOCCN(CCOCCOCCOCCOCCC(=O)N[C@H](C(=O)N[C@@H](CCCNC(N)=O)C(=O)Nc4ccc(COC(=O)NCCn5cc(Cn6c(=O)[nH]c7c(N)nc(OCCCC)nc76)nn5)cc4)C(C)C)C(=O)CCN4C(=O)C=CC4=O)C(C)C)cc3)nn1)C(=O)C2 [Compound K22] | – | EC50 ([1]; Homo sapiens, PBMC, Note c: sample pretreated with Cathepsin-B (10 μg) in PBS, room temperature, 3 h): 80 nM
CCCCOc1nc(N)c2[nH]c(=O)n(Cc3cn(CCOCCOCCOCC(=O)N[C@H](CCCCc4cn(COCCOCCOCCOCCN5C(=O)C=CC5=O)nn4)C(=O)N[C@H](C(=O)N[C@@H](CCCNC(N)=O)C(=O)Nc4ccc(COC(=O)NC[C@H](C)c5ccc(-c6c(O)cc(C)c7[nH]c(=O)c8sccc8c67)cc5)cc4)C(C)C)nn3)c2n1 [Compound K8] | 110 nM | –
C=C(CN1CCC(Cn2c(=O)n(C(=O)NCCNC(=O)OCc3ccc(NC(=O)[C@H](CCCNC(N)=O)NC(=O)[C@@H](NC(=O)CCOCCOCCOCCOCCNC(=O)CCC(=O)N4Cc5ccccc5C#Cc5ccccc54)C(C)C)cc3)c3c(N)nc(OCCCC)nc32)CC1)C(=O)OCC [Compound K52] | – | EC50 [1, 4]: 120 nM
C=C(CC(=O)O)C(=O)NCc1ccc(Cn2c(=O)[nH]c3c(N)nc(OCCOC)nc32)cc1 [KJ-138] | 50 nM | –
CCOC(=O)NC(=O)n1c(=O)n(Cc2ccc(CNC(=O)CCc3cn(CCOCCOCCOCCNC(=O)CCN4C(=O)C=CC4=O)nn3)cc2)c2nc(OCCOC)nc(N)c21 [Compound K14] | – | EC50 [1, 5]: 10 nM
CCCCOc1nc(N)c2[nH]c(=O)n(Cc3cn(CCOCCOCCOCC(=O)N[C@H](CCCCN=[N+]=[N-])C(=O)O)nn3)c2n1 [Compound 102-N3] | 180 nM | –
CCCCOc1nc(N)c2c(n1)n(CC1CCN(C(=O)/C=C/C(=O)c3ccc(OC)cc3)CC1)c(=O)n2C(=O)NCCNC(=O)OCc1ccc(NC(=O)[C@H](CCCNC(N)=O)NC(=O)[C@@H](NC(=O)CCOCCOCCOCCOCCNC(=O)CCC(=O)N2Cc3ccccc3C#Cc3ccccc32)C(C)C)cc1 [Compound K58] | – | EC50 [1, 4]: 9 nM
C=CC(=O)Nc1cc(Nc2nccc(-c3cn(C)c4ccccc34)n2)c(OC)cc1N(C)CCN(C)CCCCCCNC(=N)C(CCCCc1cn(CCOCCOCCOCCN=C=S)nn1)NC(=O)CCC(=O)NCc1ccc(Cn2c(=O)[nH]c3c(N)nc(OCCOC)nc32)cc1 (stereo not shown) [Compound K46] | 90 nM | –
CCCCOc1nc(N)c2[nH]c(=O)n(Cc3cn(CCOCCOCCOCCn4cc(CCCCN(C[C@H](C)c5ccc(-c6c(O)cc(C)c7[nH]c(=O)c8sccc8c67)cc5)C(=O)OCc5ccc(NC(=O)[C@H](CCCNC(N)=O)NC(=O)[C@@H](NC(=O)CCCCCN6C(=O)C=CC6=O)C(C)C)cc5)nn4)nn3)c2n1 [Compound K19] | 80 nM | –
C=C(CN1CCC(Cn2c(=O)[nH]c3c(N)nc(O[C@@H](C)CCC)nc32)CC1)C(=O)O [KJ-097] | 1 nM | –
COCCOc1nc(N)c2[nH]c(=O)n(Cc3ccc(CNC(=O)CCC(=O)N[C@@H](CCCCNC(=O)OCc4ccc(NC(=O)[C@H](CCCNC(N)=O)NC(=O)[C@@H](NC(=O)CCCCCN5C(=O)C=CC5=O)C(C)C)cc4)C(=O)NCCOCCOCCOCCOCCNC(=O)CCC(=O)N4Cc5ccccc5C#Cc5ccccc54)cc3)c2n1 [Compound K2] | 50 nM | –
C=CC(=O)Nc1cc(Nc2nccc(-c3cn(C)c4ccccc34)n2)c(OC)cc1N(C)CCN(C)CCCCCCNC(=O)C(CCCCNC(=O)OCc1ccc(NC(=O)[C@H](CCCNC(N)=O)NC(=O)[C@@H](NC(=O)CCOCCOCCOCCOCCNC(=O)CCC(=O)N2Cc3ccccc3C#Cc3ccccc32)C(C)C)cc1)NC(=O)CCC(=O)NCc1ccc(Cn2c(=O)[nH]c3c(N)nc(OCCOC)nc32)cc1 (stereo partly shown) [Compound K37] | – | EC50 ([1]; no pretreatment marked): 220 nM
C=CC(=O)Nc1cc(Nc2nccc(-c3cn(C)c4ccccc34)n2)c(OC)cc1N(C)CCN(C)CCCCCCNC(=O)C(CCCCc1cn(CCOCCOCCOCCNC(=O)CCC(=O)N2Cc3ccccc3C#Cc3ccccc32)nn1)NC(=O)CCC(=O)NCc1ccc(Cn2c(=O)[nH]c3c(N)nc(OCCOC)nc32)cc1 (stereo not shown) [Compound K35] | 260 nM | –
CCCCOc1nc(N)c2c(n1)n(Cc1cn(CCOCCOCCOCCNC(=O)OCc3ccc(NC(=O)[C@H](CCCNC(N)=O)NC(=O)[C@@H](NC(=O)CCCCC(=O)O)C(C)C)cc3)nn1)c(=O)n2C1CCCO1 (stereo partly shown) [Compound K9] | – | EC50 [1, 5]: 9000 nM
CCCCOc1nc(N)c2nc(O)n(Cc3cn(CCOCCOCCOCCN=[N+]=[N-])nn3)c2n1 [GY155, reference compound] | – | EC50 ([1]; no pretreatment marked): 330 nM
